Experimental data published in patent US4107304A, “Oxo-imidazolidine substituted cephalosporins and antibacterial compositions and methods of combatting bacteria employing them” (Bayer Aktiengesellschaft, priority 1974, dated 1978).

Columns and labels:
Pseudomonas aeruginosa = assay: Antibiotic activity of electropherogram spot; type: cell-based; conditions: against Pseudomonas aeruginosa
B. subtilis = assay: Antibiotic activity of electropherogram spot; type: cell-based; conditions: against B. subtilis
Escherichia coli = assay: Antibiotic activity of electropherogram spot; type: cell-based; conditions: against Escherichia coli
[1] = system: Enterobacter aerogenes sp.; assay: In vitro turbidity test, 24 h in Muller-Hinton broth; type: cell-based; conditions: 100 μg/ml
Salmonella sp. = assay: as above; type: cell-based; conditions: 100 μg/ml
Enterococcus sp. = assay: as above; type: cell-based; conditions: 100 μg/ml
[2] = system: Bordetella bronchiseptica; assay: as above; type: cell-based; conditions: 100 μg/ml
Serratia marcescens = assay: as above; type: cell-based; conditions: 100 μg/ml
[3] = system: Corynebacterium pyogenes M.; assay: as above; type: cell-based; conditions: 100 μg/ml
[4] = system: Streptococcus pyogenes W.; assay: as above; type: cell-based; conditions: 100 μg/ml
Klebsiella pneumoniae = assay: as above; type: cell-based; conditions: 100 μg/ml, 1 × 10^5 to 2 × 10^5 bacteria per milliliter, freedom from turbidity = active
Providencia = assay: as above; type: cell-based; conditions: 100 μg/ml
Shigella sp. = assay: as above; type: cell-based; conditions: 100 μg/ml
[5] = system: Neisseria catarrhalis sp.; assay: as above; type: cell-based; conditions: 100 μg/ml
[6] = system: pasteurella pseudotuberculosis; type: cell-based; conditions: 100 μg/ml, 24 hours
Lactobacillus sp. = assay: In vitro turbidity test, 24 h in Muller-Hinton broth; type: cell-based; conditions: 100 μg/ml
[7] = system: Diplococcus pneumoniae sp.; assay: as above; type: cell-based; conditions: 100 μg/ml
Brucella sp. = type: cell-based; conditions: 100 μg/ml, 24 hours
[8] = system: Proteus, indole negative and indole positive sp.; assay: In vitro turbidity test, 24 h in Muller-Hinton broth; type: cell-based; conditions: 100 μg/ml
Haemophilis influenzae = assay: as above; type: cell-based; conditions: 100 μg/ml
[9] = system: Staphylococcus aureus 133; assay: as above; type: cell-based; conditions: 100 μg/ml
Escherichia coli BE = assay: as above; type: cell-based; conditions: 100 μg/ml
[10] = system: Corynebacterium diphtheria gravis; assay: as above; type: cell-based; conditions: 100 μg/ml
[11] = Antibiotic activity of electropherogram spot (organism not stated); type: cell-based
Escherichia coli C 165 = assay: Animal experiments with white mice, intraperitoneal infection, survival after 24 hours; type: in vivo, white mice of strain CF1; conditions: C165, sc, subcutaneous, 1 administration 30 minutes after infection, dose at which 50% of infected animals survive, read-out: ED 50 after 24 hours
Method: (§1) The white mice of strain CF1 were infected intraperitoneally with the species of bacteria indicated. |Animal Experiments With White Mice |Determination of the ED 50 after 24 hours | Dose in mg of the cephalosporin from | Example 6 per kg of body weight |Germ (administered subcutaneously) |Therapy: 1 administration 30 minutes after infection. | The ED 50 is the dose at which 50% of the infected |animals still survive after 24 hours.

[12] = system: Staphylococcus aureus 133; assay: as above; type: in vivo, white mice of strain CF1; conditions: Staphylococcus aureus, 133, sc, subcutaneous, 1 administration 30 minutes after infection, dose at which 50% of infected animals survive, read-out: ED 50 after 24 hours
Method: as §1

Which “antibiotic activity of the electropherogram spot” value (“antibiotic activity” below) (Pseudomonas aeruginosa) does the source give for `CC(=O)OCC1=C(C(=O)O)N2C(=O)[C@@H](NC(=O)[C@H](NC(=O)N3CCNC3=O)c3ccccc3)[C@H]2SC1` [Example 1, sodium 7-{D-α-[(2-oxo-imidazolidin-1-yl)carbonylamino]-phenylacetamido}-3-acetoxymethyl-ceph-3-em-4-carboxylate] here?
Its value is “only one spot with antibiotic activity”.

What about the “antibiotic activity” value (B. subtilis) of the same molecule?
The value was “only one spot with antibiotic activity”.

What about the “antibiotic activity” value (Escherichia coli) of the same molecule?
The value was “only one spot with antibiotic activity”.

With `CC(=O)OCC1=C(C(=O)O)N2C(=O)[C@@H](NC(=O)[C@H](NC(=O)N3CCN(C)C3=O)c3ccccc3)[C@H]2SC1` [Example 3, sodium 7-{D-α-[(3-methyl-2-oxo-imidazolidin-1-yl)-carbonylamino]-phenylacetamido}-3-acetoxymethyl-ceph-3-em-4-carboxylate] as the molecule, how does the degree of turbidity [1] read?
The degree of turbidity was “free from turbidity”.

What about the degree of turbidity (Salmonella sp.) of the same molecule?
The degree of turbidity was “free from turbidity”.

What about the degree of turbidity (Enterococcus sp.) of the same molecule?
Its degree of turbidity is “free from turbidity”.

And the degree of turbidity [2]?
Its degree of turbidity is “free from turbidity”.

What about the degree of turbidity (Serratia marcescens) of the same molecule?
Its degree of turbidity is “free from turbidity”.

And the degree of turbidity [3]?
The degree of turbidity was “free from turbidity”.

What about the degree of turbidity [4] of the same molecule?
The degree of turbidity was “free from turbidity”.

What about the degree of turbidity (Klebsiella pneumoniae) of the same molecule?
Its degree of turbidity is “free from turbidity”.

What about the degree of turbidity (Providencia) of the same molecule?
Its degree of turbidity is “free from turbidity”.

And the degree of turbidity (Shigella sp.)?
Its degree of turbidity is “free from turbidity”.

What about the degree of turbidity [5] of the same molecule?
Its degree of turbidity is “free from turbidity”.

And the degree of turbidity [6]?
The degree of turbidity was “free from turbidity”.

What about the degree of turbidity (Lactobacillus sp.) of the same molecule?
The degree of turbidity was “free from turbidity”.

What about the degree of turbidity [7] of the same molecule?
The degree of turbidity was “free from turbidity”.

And the degree of turbidity (Brucella sp.)?
Its degree of turbidity is “free from turbidity”.

What about the degree of turbidity [8] of the same molecule?
The degree of turbidity was “free from turbidity”.

And the degree of turbidity (Haemophilis influenzae)?
Its degree of turbidity is “free from turbidity”.

And the degree of turbidity [9]?
The degree of turbidity was “free from turbidity”.

And the degree of turbidity (Escherichia coli BE)?
Its degree of turbidity is “free from turbidity”.

And the degree of turbidity [10]?
The degree of turbidity was “free from turbidity”.

With `CC(=O)OCC1=C(C(=O)O)N2C(=O)[C@@H](NC(=O)[C@H](NC(=O)N3CCN(S(=O)(=O)c4ccccc4)C3=O)c3ccccc3)[C@H]2SC1` [Example 7, Sodium 7-{D-α-[(2-oxo-3-phenylsulphonyl-imidazolidin-1-yl)-carbonylamino]-phenylacetamido}-3-acetoxymethyl-ceph-3-em-4-carboxylate] as the molecule, how does the degree of turbidity [1] read?
The degree of turbidity was “free from turbidity”.

What about the degree of turbidity (Salmonella sp.) of the same molecule?
The degree of turbidity was “free from turbidity”.

And the degree of turbidity (Enterococcus sp.)?
Its degree of turbidity is “free from turbidity”.

And the degree of turbidity [2]?
Its degree of turbidity is “free from turbidity”.

What about the degree of turbidity (Serratia marcescens) of the same molecule?
The degree of turbidity was “free from turbidity”.

And the degree of turbidity [3]?
Its degree of turbidity is “free from turbidity”.

What about the degree of turbidity [4] of the same molecule?
The degree of turbidity was “free from turbidity”.

And the degree of turbidity (Klebsiella pneumoniae)?
The degree of turbidity was “free from turbidity”.

And the degree of turbidity (Providencia)?
Its degree of turbidity is “free from turbidity”.

What about the degree of turbidity (Shigella sp.) of the same molecule?
Its degree of turbidity is “free from turbidity”.

And the degree of turbidity [5]?
The degree of turbidity was “free from turbidity”.

What about the degree of turbidity [6] of the same molecule?
The degree of turbidity was “free from turbidity”.

What about the degree of turbidity (Lactobacillus sp.) of the same molecule?
The degree of turbidity was “free from turbidity”.

And the degree of turbidity [7]?
The degree of turbidity was “free from turbidity”.

What about the degree of turbidity (Brucella sp.) of the same molecule?
The degree of turbidity was “free from turbidity”.

And the degree of turbidity [8]?
The degree of turbidity was “free from turbidity”.

And the degree of turbidity (Haemophilis influenzae)?
Its degree of turbidity is “free from turbidity”.

What about the degree of turbidity [9] of the same molecule?
The degree of turbidity was “free from turbidity”.

And the degree of turbidity (Escherichia coli BE)?
Its degree of turbidity is “free from turbidity”.

And the degree of turbidity [10]?
Its degree of turbidity is “free from turbidity”.

Which “antibiotic activity” value [11] does the source give for `CC1=C(C(=O)O)N2C(=O)[C@@H](NC(=O)[C@H](NC(=O)N3CCNC3=O)c3ccccc3)[C@H]2SC1` [Example 2, 7-{D-α-[(2-Oxo-imidazolidin-1-yl)-carbonylamino]-phenylacetamido}-3-methyl-ceph-3-em-4-carboxylic acid] here?
The value was “only one spot with antibiotic activity”.

For `CC(=O)OCC1=C(C(=O)O)N2C(=O)[C@@H](NC(=O)[C@H](NC(=O)N3CCN(S(C)(=O)=O)C3=O)c3ccccc3)[C@H]2SC1` [Example 6, Sodium 7-{D-α-[(2-oxo-3-mesyl-imidazolidin-1-yl)-carbonylamino]-phenylacetamido}-3-acetoxymethyl-ceph-3-em-4-carboxylate], which degree of turbidity [1] is on record?
Its degree of turbidity is “free from turbidity”.

What about the degree of turbidity (Salmonella sp.) of the same molecule?
Its degree of turbidity is “free from turbidity”.

What about the degree of turbidity (Enterococcus sp.) of the same molecule?
The degree of turbidity was “free from turbidity”.

What about the degree of turbidity [2] of the same molecule?
The degree of turbidity was “free from turbidity”.

And the degree of turbidity (Serratia marcescens)?
The degree of turbidity was “free from turbidity”.

What about the degree of turbidity [3] of the same molecule?
Its degree of turbidity is “free from turbidity”.

And the degree of turbidity [4]?
The degree of turbidity was “free from turbidity”.

What about the degree of turbidity (Klebsiella pneumoniae) of the same molecule?
The degree of turbidity was “free from turbidity”.

What about the “antibiotic activity” value [11] of the same molecule?
Its value is “one spot with antibiotic activity”.

What about the degree of turbidity (Providencia) of the same molecule?
Its degree of turbidity is “free from turbidity”.

And the degree of turbidity (Shigella sp.)?
The degree of turbidity was “free from turbidity”.

And the degree of turbidity [5]?
The degree of turbidity was “free from turbidity”.

And the degree of turbidity [6]?
Its degree of turbidity is “free from turbidity”.

What about the degree of turbidity (Lactobacillus sp.) of the same molecule?
The degree of turbidity was “free from turbidity”.

And the degree of turbidity [7]?
Its degree of turbidity is “free from turbidity”.

What about the degree of turbidity (Brucella sp.) of the same molecule?
The degree of turbidity was “free from turbidity”.

What about the degree of turbidity [8] of the same molecule?
Its degree of turbidity is “free from turbidity”.

What about the degree of turbidity (Haemophilis influenzae) of the same molecule?
Its degree of turbidity is “free from turbidity”.

What about the degree of turbidity [9] of the same molecule?
Its degree of turbidity is “free from turbidity”.

What about the degree of turbidity (Escherichia coli BE) of the same molecule?
The degree of turbidity was “free from turbidity”.

What about the ED50 (Escherichia coli C 165) of the same molecule?
The ED50 was 200 mg/kg.

And the ED50 [12]?
Its ED50 is 10 mg/kg.

What about the degree of turbidity [10] of the same molecule?
The degree of turbidity was “free from turbidity”.
